SMILES strings stand for the structures. Some results are limits rather than exact numbers.

The target of the assay is skeletal myofibrils (myosin ATPase activity). The assay is described as follows: Skeletal Myofibril ATPase Assay. Type of assay: biochemical. The following applies: PK-LDH coupled, absorbance at 340 nm. The procedure:
Overview: Myosin ATPase activity is assessed by using a coupled reaction system, in which ADP generated by the myosin ATPase function is coupled to the disappearance of NADH through the pyruvate kinase/lactate dehydrogenase (PK-LDH) system. Myosin ATPase activity produces ADP, which is used as a substrate for PK to produce pyruvate and regenerate ATP. The pyruvate is then used as a substrate by LDH to oxidize NADH to NAD+. The rate of the reaction is monitored through the time-dependent disappearance of NADH using absorbance at 340 nm. Inhibition of ATPase activity by the assayed compounds is indicated by a reduced rate of NADH loss, relative to vehicle-treated controls, over the experimental time window. To assess the selectivity of the assayed compounds for skeletal myofibrils, the compounds are counter-screened in cardiac myofibrils.
Materials: The following stock solutions and reagents were used in the Skeletal Myofibril ATPase Assay:
Stock Solutions of pCa buffer. Combine PIPES, CaCl2, and EGTA solutions with 70 mL of water. Adjust pH to 7.0 and bring final volume to 100 mL.
Skeletal Myofibril ATPase Assay Procedure: BSA, ATP, NADH, PEP, and DTT solutions were thawed at room temperature, then transferred to ice. Pellet-frozen myofibrils (approximately twice the required volume) were transferred into a sufficiently large tube and capped. Myofibrils were thawed by rolling in a water bath for approximately 15 min at room temperature and cooled on ice. Buffers A and B were prepared by adjusting volumes as necessary for required number of wells and stored on ice. 0.5 μL of the compounds to be assayed were added into wells of a 384-well plate. Buffers A and B were mixed by inversion immediately prior to use, then 25 μL of each was dispensed using a Multidrop dispenser (Buffer A first, then Buffer B). The absorbance within the wells was measured at 340 nm, using a kinetic protocol in which the wells are read every 1.5-2 min for 1 h. The reaction rate was qualitatively assessed by subtracting the minimum absorbance value from the maximum value for each well, using either the SoftMax Pro plate reader software or a spreadsheet program such as Excel. Using GraphPad Prism 8.0, the data was normalized, with 100% activity defined as the absorbance change in the 1% DMSO vehicle wells and 0% assigned to no change in absorbance over the course of the experiment. The normalized data were fit to a variable-slope four-parameter logistic model, constraining the bottom to be 0 or greater. Compounds of Table 1 to 4 were tested and results of the assay appear in Table 5 herein. A=IC50 is less than or equal to 10 μM; B=IC50 is greater than 10 μM and less than 100 μM; C=IC50 is greater than 100 μM; […].
The term IC50 denotes the point on the concentration scale where inhibition reaches its midpoint. High values mean weaker potency in that assay, low ones greater potency in that assay. With `O=c1ccc(-c2ccc(OC(F)F)nc2)nn1Cc1nnc(-c2ccc(F)cc2)s1` [Compound 17], the IC50 is under 10 µM.
Take `O=c1ccc(-c2cnc(OCC3(F)COC3)nc2)nn1Cc1cncc(F)c1` [Compound 66, 6-(2-((3-fluorooxetan-3-yl)methoxy)pyrimidin-5-yl)-2((5-fluoropyridin-3-yl)methyl)pyridazine-3(2H)-one]: the IC50 is under 10 µM.
Turning to `Cc1nnc(Cn2nc(-c3ccc(OC(F)F)cc3)ccc2=O)[nH]1` [Compound 227, 6-(4-(difluoromethoxy)phenyl)-2-((5-methyl-4H-1,2,4-triazol-3-yl)methyl)pyridazin-3(2H)-one], the IC50 is over 100 µM.
To `O=c1ccc(-c2cnc(OCC(F)(F)F)nc2)nn1Cc1cc(C(F)F)no1` [Compound 26, 2-((3-(difluoromethyl)isoxazol-5-yl)methyl)-6-(2-(2,2,2-trifluoroethoxy)pyrimidin-5-yl)pyridazin-3(2H)-one] belongs under 10 µM.
To `O=c1ccc(-c2cnc(OCC(F)(F)F)nc2)nn1Cc1cncc(C(F)(F)F)c1` [Compound 77, 6-(2-(2,2,2-trifluoroethoxy)pyrimidin-5-yl)-2-((5-(trifluoromethyl)pyridin-3-yl)methyl)pyridazin-3(2H)-one] belongs under 10 µM.
To `CC(C)(F)COc1ncc(-c2ccc(=O)n(Cc3cncc(F)c3)n2)cn1` [Compound 121, 6-(2-(2-fluoro-2-methylpropoxy)pyrimidin-5-yl)-2-((5-f1uoropyridin-3-yl)methyl)pyridazine-3(2H)-one] belongs under 10 µM.
In the case of `CSCc1ncc(Cn2nc(-c3cnc(OCC(F)(F)F)nc3)ccc2=O)s1` [Compound 109, 2-((2-((methylthio)methyl)thiazol-5-yl)methyl)-6-(2-(2,2,2-trifluoroethoxy)pyrimidin-5-yl)pyridazine-3(2H)-one], the IC50 is under 10 µM.
To `O=c1ccc(-c2cnc(OCC(F)(F)F)nc2)nn1Cc1cccnc1O` [Compound 47, 2-((2-hydroxypyridin-3-yl)methyl)-6-(2-(2,2,2-trifluoroethoxy)pyrimidin-5-yl)pyridazin-3(2H)-one] belongs over 100 µM.
Take `O=c1ccc(-c2cnc(OCC(F)(F)F)nc2)nn1Cc1ccc2[nH]ncc2c1` [Compound 96, 2-((1H-indazol-5-yl)methyl)-6-(2-(2,2,2-trifluoroethoxy)pyrimidin-5-yl)pyridazin-3(2H)-one]: the IC50 was under 10 µM.
`O=c1ccc(-c2cnc(OCC(F)(F)F)nc2)nn1Cc1cncs1` [Compound 59, 2-(thiazol-5-ylmethyl)-6-(2-(2,2,2-trifluoroethoxy)pyrimidin-5-yl)pyridazin-3(2H)-one]: the IC50 is under 10 µM.
Compound `CC(=O)c1cc(Cn2nc(-c3cnc(OCC(F)(F)F)nc3)ccc2=O)on1` [Compound 33, 2-((3-acetylisoxazol-5-yl)methyl)-6-(2-(2,2,2-trifluoroethoxy)pyrimidin-5-yl)pyridazin-3(2H)-one] returned an IC50 of under 10 µM.
Compound `CC(F)(F)COc1ncc(-c2ccc(=O)n(Cc3cncc(F)c3)n2)cn1` [Compound 113, 6-(2-(2,2-difluoropropoxy)pyrimidin-5-yl)-2-((5-fluoropyridin-3-yl)methyl)pyridazine-3(2H)-one] came in with a half-maximal inhibitory concentration (IC50) of under 10 µM.
To `O=c1ccc(-c2cnc(OCC(F)(F)F)nc2)nn1Cc1nnc(N2CCCCC2)s1` [Compound 95, 2-((5-(piperidin-1-yl)-1,3,4-thiadiazol-2-yl)methyl)-6-(2-(2,2,2-trifluoroethoxy)pyrimidin-5-yl)pyridazin-3(2H)-one] belongs under 10 µM.
The compound `CC(C)COc1ncc(-c2ccc(=O)n(Cc3cncc(F)c3)n2)cn1` [Compound 110, 2-((5-fluoropyridin-3-yl)methyl)-6-(2-isobutoxypyrimidin-5-yl)pyridazine-3(2H)-one] had an IC50 of under 10 µM.
Take `O=c1ccc(-c2cnc(OCc3ccccc3)nc2)nn1Cc1cncc(F)c1` [Compound 138]: the IC50 is under 10 µM.
`COCc1cc(Cn2nc(-c3cnc(OCC(F)(F)F)nc3)ccc2=O)on1` [Compound 56, 2-((3-(methoxymethyl)isoxazol-5-yl)methyl)-6-(2-(2,2,2-trifluoroethoxy)pyrimidin-5-yl)pyridazin-3(2H)-one] returned an IC50 of under 10 µM.
Turning to `Nc1nnc(Cn2nc(-c3ccc(OC(F)F)cc3)ccc2=O)o1` [Compound 235, 2-((5-amino-1,3,4-oxadiazol-2-yl)methyl)-6-(4-(difluoromethoxy)phenyl)-pyridazin-3(2H)-one], the IC50 was over 100 µM.
In turn, `Cc1nnc(Cn2nc(-c3ccc(OC(F)F)cc3)ccc2=O)s1` [Compound 223, 6-(4-(difluoromethoxy)phenyl)-2-((5-methyl-1,3,4-thiadiazol-2-yl)methyl)pyridazin-3(2H)-one] displayed an IC50 of 10 to 100 µM.
For the compound `O=c1ccc(-c2ccc(OC(F)F)nc2)nn1Cc1cn[nH]c1-c1ccccc1` [Compound 23, 6-(6-(difluoromethoxy)pyridin-3-yl)-2-((5-phenyl-1H-pyrazol-4-yl)methyl)pyridazin-3(2H)-one], the IC50 was over 100 µM.
`O=c1ccc(-c2cnc(OCC(F)(F)F)nc2)nn1Cc1cnc(C(F)F)s1` [Compound 105] had an IC50 of under 10 µM.
To `Cc1ccc(Cn2nc(-c3cnc(OCC(F)(F)F)nc3)ccc2=O)nn1` [Compound 41, 2-((6-methylpyridazin-3-yl)methyl)-6-(2-(2,2,2-trifluoroethoxy)pyrimidin-5-yl)pyridazin-3(2H)-one] belongs under 10 µM.
The compound `O=c1ccc(-c2cnc(OCC3CCC3)nc2)nn1Cc1cncc(F)c1` [Compound 126, 6-(2-(cyclobutylmethoxy)pyrimidin-5-yl)-2-((5-fluoropyridin-3-yl)methyl)pyridazine-3(2H)-one] gave a half-inhibitory concentration (IC50) of under 10 µM.
In turn, `O=c1ccc(-c2cnc(OCC3(F)COC3)nc2)nn1Cc1nnc(-c2ccccc2)s1` [Compound 92, 6-(2-((3-fluorooxetan-3-yl)methoxy)pyrimidin-5-yl)-2-((5-phenyl-1,3,4-thiadiazol-2-yl)methyl)pyridazin-3(2H)-one] yielded an IC50 of under 10 µM.
`Cc1csc(Cn2nc(-c3ccc(OC(F)F)cc3)ccc2=O)n1` [Compound 205, 6-(4-(difluoromethoxy)phenyl)-2-((4-methylthiazol-2-yl)methyl) pyridazine-3(2H)-one] returned an IC50 of under 10 µM.
To `O=c1ccc(-c2ccc(OC(F)F)cc2)nn1Cc1cncnc1` [Compound 220, 6-(4-(difluoromethoxy)phenyl)-2-(pyrimidin-5-ylmethyl)pyridazin-3(2H)-one] belongs 10 to 100 µM; to `COc1ccc(-c2ccc(=O)n(Cc3nc(-c4ccc(OC)cc4)no3)n2)cc1` [Compound 315, 6-(4-methoxyphenyl)-2-((3-(4-methoxyphenyl)-1,2,4-oxadiazol-5-yl)methyl)pyridazin-3(2H)-one], under 10 µM.
In turn, `O=c1ccc(-c2ccc(OCC(F)(F)F)cc2)nn1Cc1cncc(F)c1` [Compound 238, 2-((5-fluoropyridin-3-yl)methyl)-6-(4-(2,2,2-trifluoroethoxy)phenyl) pyridazin-3(2H)-one] showed an IC50 of under 10 µM.
As for `COc1ccc(-c2ccc(=O)n(Cc3nc(-c4ccccc4)no3)n2)cc1` [Compound 309, 6-(4-methoxyphenyl)-2-((3-phenyl-1,2,4-oxadiazol-5-yl)methyl)pyridazin-3(2H)-one], the IC50 is under 10 µM.
As to `CC(C)(C)COc1ncc(-c2ccc(=O)n(Cc3cncc(F)c3)n2)cn1` [Compound 104, 2((5-fluoropyridin-3-yl)methyl)-6-(2-(neopentyloxy)pyrimidin-5-yl)pyridazine-3(2H)-one], the IC50 is under 10 µM.
To `O=c1ccc(-c2cnc(OCC(F)(F)F)nc2)nn1Cc1cnoc1` [Compound 85, 2-(isoxazol-4-ylmethyl)-6-(2-(2,2,2-trifluoroethoxy)pyrimidin-5-yl)pyridazin-3(2H)-one] belongs 10 to 100 µM; to `O=c1ccc(-c2ccc(OC(F)F)cc2)nn1Cc1nc(C2CC2)cs1` [Compound 210, 2-((4-cyclopropylthiazol-2-yl)methyl)-6-(4-(difluoromethoxy)phenyl) pyridazine-3(2H)-one], under 10 µM; to `CCc1cc(Cn2nc(-c3ccc(OC(F)F)cc3)ccc2=O)on1` [Compound 209, 6-(4-(difluoromethoxy)phenyl)-2-((3-ethylisoxazol-5 - yl)methyl)pyridazin-3(2H)-one], under 10 µM.
Compound `Cc1noc(Cn2nc(-c3ccc(OC(F)F)cc3)ccc2=O)n1` [Compound 216, 6-(4-(difluoromethoxy)phenyl)-2-((3-methyl-1,2,4-oxadiazol-5-yl)methyl)pyridazin-3(2H)-one] had an IC50 of 10 to 100 µM.

The record behind these values is patent publication US11873290B2, “Pyridazinone compounds and uses thereof” (Edgewise Therapeutics, Inc., priority 2018, dated 2024).
